Measurements: US9216173B2, “2-Pyridyl carboxamide-containing spleen tyrosine kinase (SYK) inhibitors” (Merck Sharp & Dohme Corp., priority 2011, dated 2015)

molecular target: T1, recombinant human GST-SYK (Homo sapiens, UniProt P43405); test: Homogeneous Time-Resolved Fluorescence (HTRF) assay for the recombinant human Syk enzyme; format: biochemical; conditions: GST-hSYK 5 pM, ATP 25 μM, 10-dose titration 10 μM to 0.508 nM; read-out: IC50
T1 construct: purchased Carna Biosciences 08-176
Summary of the method: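 GST-hSYK fusion phosphorylates a peptide for 45 min at room temperature. Quenched with EDTA buffer containing 2 nM Eu-anti-phosphotyrosine antibody and 70 nM SA-APC. HTRF signal read after 30 min.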

SMILES	IC50
Cc1nc(C)c(Cl)c(Nc2cc(N[C@@H]3CCCC[C@@H]3N)cnc2C(N)=O)n1 [Example 1.126, 5-{[(1R,2S)-2-aminocyclohexyl]amino}-3-[(5-chloro-2,6-dimethylpyrimidin-4-yl)amino]pyridine-2-carboxamide]	1300 nM
Cc1nc(Nc2cc(N[C@@H]3CCCC[C@@H]3N)cnc2C(N)=O)ccc1-c1ccccc1 [Example 3.2, 5-{[(1R,2S)-2-aminocyclohexyl]amino}-3-[(6-methyl-5-phenylpyridin-2-yl)amino]pyridine-2-carboxamide]	3.9 nM

same assay, conditions: GST-hSYK 5 pM, ATP 25 μM, 10-dose titration 10 μM to 0.508 nM; read-out: rhSYK Activity (IC50 rating)

SMILES	IC50
Cc1cc(Nc2cc(N[C@@H]3CCCC[C@@H]3N)cnc2C(N)=O)nc(-c2cnn3c2CCCC3)c1 [Example 1.113, 5-{[(1R,2S)-2-aminocyclohexyl]amino}-3-{[4-methyl-6-(4,5,6,7-tetrahydropyrazolo[1,5-a]pyridin-3-yl)pyridin-2-yl]amino}pyridine-2-carboxamide]	< 10 nM
Cc1cc(Nc2cc(N[C@@H]3CCCC[C@@H]3N)cnc2C(N)=O)nc(-c2cnc(C(C)(C)O)s2)c1 [Example 1.114, 5-{[(1R,2S)-2-aminocyclohexyl]amino}-3-({6-[2-(1-hydroxy-1-methylethyl)-1,3-thiazol-5-yl]-4-methylpyridin-2-yl}amino)pyridine-2-carboxamide]	< 10 nM
Cc1cc(Nc2cc(N[C@@H]3CCCC[C@@H]3N)cnc2C(N)=O)nc(-c2cnn3c2CCC3)c1 [Example 1.115, 5-{[(1R,2S)-2-aminocyclohexyl]amino}-3-{[6-(5,6-dihydro-4H-pyrrolo[1,2-b]pyrazol-3-yl)-4-methylpyridin-2-yl]amino}pyridine-2-carboxamide]	< 10 nM
CCC(C)(N)CNc1cnc(C(N)=O)c(Nc2cc(C)cc(C)n2)c1 (stereo not drawn) [Example 1.117, 5-[(2-amino-2-methylbutyl)amino]-3-[(4,6-dimethylpyridin-2-yl)amino]pyridine-2-carboxamide]	< 10 nM
Cc1cc(C)nc(Nc2cc(NCC(N)C3CC3)cnc2C(N)=O)c1 (stereo not drawn) [Example 1.118, 5-[(2-amino-2-cyclopropylethyl)amino]-3-[(4,6-dimethylpyridin-2-yl)amino]pyridine-2-carboxamide]	< 10 nM
CN1CCN(c2cccc(Nc3cc(N[C@@H]4CCCC[C@@H]4N)cnc3C(N)=O)n2)CC1 [Example 1.119, 5-{[(1R,2S)-2-aminocyclohexyl]amino}-3-{[6-(4-methylpiperazin-1-yl)pyridin-2-yl]amino}pyridine-2-carboxamide]	< 10 nM
CC(C)(O)COCc1cccc(Nc2cc(N[C@@H]3CCCC[C@@H]3N)cnc2C(N)=O)n1 [Example 1.120, 5-{[(1R,2S)-2-aminocyclohexyl]amino}-3-({6-[(2-hydroxy-2-methylpropoxy)methyl]pyridin-2-yl}amino)pyridine-2-carboxamide]	< 10 nM
Cc1cncc(Nc2cc(N[C@@H]3CCCC[C@@H]3N)cnc2C(N)=O)n1 [Example 1.121, 5-{[(1R,2S)-2-aminocyclohexyl]amino}-3-[(6-methylpyrazin-2-yl)amino]pyridine-2-carboxamide]	< 10 nM
NC(=O)c1ncc(N[C@@H]2CCCC[C@@H]2N)cc1Nc1ccnc(-n2nccn2)n1 [Example 1.122, 5-{[(1R,2S)-2-aminocyclohexyl]amino}-3-{[2-(2H-1,2,3-triazol-2-yl)pyrimidin-4-yl]amino}pyridine-2-carboxamide]	< 10 nM
NC(=O)c1ncc(N[C@@H]2CCCC[C@@H]2N)cc1Nc1ccncn1 [Example 1.123, 5-{[(1R,2S)-2-aminocyclohexyl]amino}-3-(pyrimidin-4-ylamino)pyridine-2-carboxamide]	100 to 1000 nM
COc1cc(Nc2cc(N[C@@H]3CCCC[C@@H]3N)cnc2C(N)=O)nc(OC)n1 [Example 1.124, 5-{[(1R,2S)-2-aminocyclohexyl]amino}-3-[(2,6-dimethoxypyrimidin-4-yl)amino]pyridine-2-carboxamide]	< 10 nM
Cc1cc(Nc2cc(N[C@@H]3CCCC[C@@H]3N)cnc2C(N)=O)nc(C)n1 [Example 1.125, 5-{[(1R,2S)-2-aminocyclohexyl]amino}-3-[(2,6-dimethylpyrimidin-4-yl)amino]pyridine-2-carboxamide]	< 10 nM
Cc1nc(C)c(Cl)c(Nc2cc(N[C@@H]3CCCC[C@@H]3N)cnc2C(N)=O)n1 [Example 1.126, 5-{[(1R,2S)-2-aminocyclohexyl]amino}-3-[(5-chloro-2,6-dimethylpyrimidin-4-yl)amino]pyridine-2-carboxamide]	1000 to 10000 nM
Cc1nc(Cl)cc(Nc2cc(N[C@@H]3CCCC[C@@H]3N)cnc2C(N)=O)n1 [Example 1.127, 5-{[(1R,2S)-2-aminocyclohexyl]amino}-3-[(6-chloro-2-methylpyrimidin-4-yl)amino]pyridine-2-carboxamide]	< 10 nM
NC(=O)c1ncc(N[C@@H]2CCCC[C@@H]2N)cc1Nc1nc(Cl)ncc1F [Example 1.128, 5-{[(1R,2S)-2-aminocyclohexyl]amino}-3-[(2-chloro-5-fluoropyrimidin-4-yl)amino]pyridine-2-carboxamide]	10 to 100 nM
NC(=O)c1ncc(N[C@@H]2CCCC[C@@H]2N)cc1Nc1ccnc(C2CC2)n1 [Example 1.129, 5-{[(1R,2S)-2-aminocyclohexyl]amino}-3-[(2-cyclopropylpyrimidin-4-yl)amino]pyridine-2-carboxamide]	< 10 nM
Cc1cc(C)nc(Nc2cc(N[C@@H]3CCOC[C@@H]3N)cnc2C(N)=O)c1 [Example 1.130, 5-{[(3R,4R)-3-aminotetrahydro-2H-pyran-4-yl]amino}-3-[(4,6-dimethylpyridin-2-yl)amino]pyridine-2-carboxamide]	< 10 nM

SMILES	IC50
COc1cc(C)nc(Nc2cc(N[C@@H]3CCOC[C@@H]3N)cnc2C(N)=O)c1 [Example 1.131, 5-{[(3R,4R)-3-aminotetrahydro-2H-pyran-4-yl]amino}-3-[(4-methoxy-6-methylpyridin-2-yl)amino]pyridine-2-carboxamide]	< 10 nM
CNC(=O)C(N)CNc1cnc(C(N)=O)c(Nc2cc(C)cc(C)n2)c1 (stereo not drawn) [Example 2.1, 5-{[2-amino-3-(methylamino)-3-oxopropyl]amino}-3-[(4,6-dimethylpyridin-2-yl)amino]pyridine-2-carboxamide]	100 to 1000 nM
Cc1nc(Nc2cc(NC[C@H](C)N)cnc2C(N)=O)ccc1Br [Example 2.2, 5-{[(2S)-2-aminopropyl]amino}-3-[(5-bromo-6-methylpyridin-2-yl)amino]pyridine-2-carboxamide]	< 10 nM
Cc1cc(C)nc(Nc2cc(NCC(N)C(F)F)cnc2C(N)=O)c1 (stereo not drawn) [Example 2.4, 5-[(2-amino-3,3-difluoropropyl)amino]-3-[(4,6-dimethylpyridin-2-yl)amino]pyridine-2-carboxamide]	10 to 100 nM
Cc1cc(C)nc(Nc2cc(N[C@@H]3[C@H](N)CCCC3(F)F)cnc2C(N)=O)c1 [Example 2.5, 5-{[(1R,6R)-6-amino-2,2-difluorocyclohexyl]amino}-3-[(4,6-dimethylpyridin-2-yl)amino]pyridine-2-carboxamide]	< 10 nM
CSCC(N)CNc1cnc(C(N)=O)c(Nc2cc(C)cc(C)n2)c1 (stereo not drawn) [Example 2.8, 5-{[2-amino-3-(methylsulfanyl)propyl]amino}-3-[(4,6-dimethylpyridin-2-yl)amino]pyridine-2-carboxamide]	< 10 nM
Cc1cc(C)nc(Nc2cc(NCC(N)C(=O)N(C)C)cnc2C(N)=O)c1 (stereo not drawn) [Example 2.9, 5-{[2-amino-3-(dimethylamino)-3-oxopropyl]amino}-3-[(4,6-dimethylpyridin-2-yl)amino]pyridine-2-carboxamide]	100 to 1000 nM
Cc1cc(C)nc(Nc2cc(NC3CCNCC3)cnc2C(N)=O)c1 [Example 2.10, 3-[(4,6-dimethylpyridin-2-yl)amino]-5-(piperidin-4-ylamino)pyridine-2-carboxamide]	100 to 1000 nM
Cc1cc(C)nc(Nc2cc(NCC(N)Cc3ccccc3)cnc2C(N)=O)c1 (stereo not drawn) [Example 2.12, 5-[(2-amino-3-phenylpropyl)amino]-3-[(4,6-dimethylpyridin-2-yl)amino]pyridine-2-carboxamide]	10 to 100 nM
Cc1cc(C)nc(Nc2cc(NCC(N)CO)cnc2C(N)=O)c1 (stereo not drawn) [Example 2.14, 5-[(2-amino-3-hydroxypropyl)amino]-3-[(4,6-dimethylpyridin-2-yl)amino]pyridine-2-carboxamide]	10 to 100 nM
Cc1cc(C)nc(Nc2cc(NC3CC(N)C3)cnc2C(N)=O)c1 (stereo not drawn) [Example 2.15, 5-[(3-aminocyclobutyl)amino]-3-[(4,6-dimethylpyridin-2-yl)amino]pyridine-2-carboxamide]	10 to 100 nM
Cc1nc(Nc2cc(N[C@@H]3CCCC[C@@H]3N)cnc2C(N)=O)ccc1-c1cccc(C(O)C(F)F)c1 (stereo partly drawn) [Example 3.1, 5-{[(1R,2S)-2-aminocyclohexyl]amino}-3-({5-[3-(2,2-difluoro-1-hydroxyethyl)phenyl]-6-methylpyridin-2-yl}amino)pyridine-2-carboxamide]	< 10 nM
Cc1nc(Nc2cc(N[C@@H]3CCCC[C@@H]3N)cnc2C(N)=O)ccc1-c1ccccc1 [Example 3.2, 5-{[(1R,2S)-2-aminocyclohexyl]amino}-3-[(6-methyl-5-phenylpyridin-2-yl)amino]pyridine-2-carboxamide]	< 10 nM
Cc1nc(Nc2cc(N[C@@H]3CCCC[C@@H]3N)cnc2C(N)=O)ccc1-c1cccc([N+](=O)[O-])c1 [Example 3.3, 5-{[(1R,2S)-2-aminocyclohexyl]amino}-3-{[6-methyl-5-(3-nitrophenyl)pyridin-2-yl]amino}pyridine-2-carboxamide]	< 10 nM
COc1ccc(-c2ccc(Nc3cc(N[C@@H]4CCCC[C@@H]4N)cnc3C(N)=O)nc2C)cc1OC [Example 3.4, 5-{[(1R,2S)-2-aminocyclohexyl]amino}-3-{[5-(3,4-dimethoxyphenyl)-6-methylpyridin-2-yl]amino}pyridine-2-carboxamide]	< 10 nM
Cc1nc(Nc2cc(N[C@@H]3CCCC[C@@H]3N)cnc2C(N)=O)ccc1-c1ccc(C(=O)O)cc1 [Example 3.5, 4-{6-[(5-{[(1R,2S)-2-aminocyclohexyl]amino}-2-carbamoylpyridin-3-yl)amino]-2-methylpyridin-3-yl}benzoic acid]	< 10 nM
Cc1nc(Nc2cc(N[C@@H]3CCCC[C@@H]3N)cnc2C(N)=O)ccc1-c1cccc(C(=O)O)c1 [Example 3.6, 3-{6-[(5-{[(1R,2S)-2-aminocyclohexyl]amino}-2-carbamoylpyridin-3-yl)amino]-2-methylpyridin-3-yl}benzoic acid]	< 10 nM
